Results: US10632130B2, “Dehydroandrosterol and methods of using the same” (A[…], LLC, priority 2016, dated 2020)
Like-named read-outs stand apart in the source and are kept apart here.

How the values were obtained:
human, male volunteers [1] = test system: human, male volunteers
Method: Two human, male volunteers were selected to pre-trial the DHA material by single daily oral administration. Both were of mature age, not naive to various exogenously supplied androgens, and in good general health. Food and exercise routine was not modified from normal during the testing period, so as to avoid introduction of confounding variables.
Doses were ramped 50 mg weekly, beginning at 50 mg and concluding at 200 mg.
One of the test subjects (Subject #2) took a two week washout after this initial testing regiment and resumed testing at 100 mg, ramping the dose weekly as prior but using 100 mg increments, such that at four weeks of testing the subject was using 400 mg.
After another two week washout period, Subject #2 elected to resume testing of DHA with another related compound, androsterone, at various doses. Over several more months, this DHA/androsterone ratio was altered over a range and maintained at various ratios for not less than five days at a time before modification.

goats = test system: goats
Method: Caprine studies were also performed in two test animals. The test animals selected were monozygous male twins, castrated and placed in separate pens not later than six weeks after birth.
At approximately three months of age, one of these two goats was selected to receive daily DHA in a single, bolus, oral dose. The other goat was not given DHA, and served as the control. All parameters were equalized (pen size, ambient temperature, once daily exercise for 15 minutes on tread mill, 30 minute “play” time with other goats, twice daily ad-lib feeding of identical source feed, etc.)
Dosing was initiated in the test goat at 50 mg. After two weeks, the dose was increased to 100 mg, then after another two weeks increased to 200 mg, then maintained at that dose for an additional four weeks.
At the end of the eight week testing period, the two test animals were weighed to establish gains made from their original base-line weight at the beginning of the study.

human, male volunteers [2] = test system: human, male volunteers; remark: listed apart in the source
Source text: Two human, male volunteers were selected to trial the encapsulated DHA material by daily oral administration. They were allowed to select their own serving schedules and serving sizes (within reason of extrapolated values), provided they be consistent and document the compliance of their regimens. Both were of mature age, not naive to various exogenously supplied androgens, and in good general health. Food and exercise routine was not modified from normal during the testing period, so as to avoid introduction of confounding variables.
In particular, Trial Participant #1 was a person who took five capsules a day (100 mg/day DHA) of the composition for sixteen weeks. […] Trial Participant #2 was a person who took four capsules a day (80 mg/day DHA) of the composition for six weeks.

[3] = testosterone as comparative standard; estimated; cited from earlier work
[4] = Trial Participant #2, 80 mg/day DHA, six weeks

In the case of `C[C@]12CC[C@H]3[C@@H](CC=C4C[C@H](O)CC[C@@]43C)[C@@H]1CC[C@@H]2O` [DHA, 5-Androsten-3a,17b-diol], the “androgenic synergism with androsterone” value (human, male volunteers [1]; Subject #2, extended testing, co-administered androsterone over a wide dose range) is reported as “punctuated androgenic synergism”, the “dose dependence of effects” value (human, male volunteers [1]; both test subjects) is reported as “proportional to dose in a fairly linear fashion” and the “parameters associated with enhanced androgen status (muscle hardness/fullness, strength)” value (human, male volunteers [1]; both test subjects) is reported as “distinct improvements”. The “side-effects characteristic of exogenous hormones” value (human, male volunteers [1]; both test subjects, acne only noted at the higher doses tested) was “mild acne being the only undesirable effect”, the “subjective improvements, as defined by weight, strength, and/or muscle hardness gain” value (human, male volunteers [1]; both test subjects, one month, oral doses ramped 50 mg weekly from 50 mg to 200 mg) was “subjective improvements” and the “male behavior in castrate male” value (goats; test goat in play pen with superior goats) was “Alpha-male behavior was indeed noted to be established”. For the same compound, the “appetite and food intake” value (goats; test goat versus control) was “greater appetite and food intake”, the “weight gain relative to control goat” value (goats; test goat, eight weeks) was “approximately double” and the general weight gain (goats; test goat, eight weeks, from base-line 46 pounds, control 33%) was 59%. For the same compound, the “weight at end of testing” value (goats; test goat, eight weeks, oral 50 mg, then 100 mg, then 200 mg daily, start weight 46 pounds, control 61 pounds) was 73 pounds, the weight gained (human, male volunteers [2]; Trial Participant #1, 100 mg/day DHA, sixteen weeks) was “fifteen” and the “bench press at the end” value (human, male volunteers [2]; Trial Participant #1, 100 mg/day DHA, sixteen weeks, 270 pounds at the beginning) was 340. The “single repetition leg squats at the end” value (human, male volunteers [2]; Trial Participant #1, 100 mg/day DHA, sixteen weeks, 430 pounds at the beginning) was 545 pounds, the “deadlift at the end” value (human, male volunteers [2]; Trial Participant #1, 100 mg/day DHA, sixteen weeks, 455 pounds at the beginning) was 560 pounds and the “improvement of all major lifting measurements from start to finish” value (human, male volunteers [2]; [4]) was 20-25 pounds. The weight gained (human, male volunteers [2]; [4]) was “twelve”, the “reported effects of consumer use” value was “increases in strength, lean muscle gains, increased fat loss, appetite increase, libido boost, increased energy, and increased muscle hardness” and the reported side effects (consumer use) was “slight acne and slight lethargy”. For the same compound, the “relative androgenic activity equivalent to that of testosterone” value [3] was “approximately 43%”.
